# In patent publication US6747013B2, “Therapy for cellular accumulation in chronic inflammatory diseases” (The Regents of the University of California, priority 1995, dated 2004):
# Numbered stars: 1 amine (or outer) side, 2 acyl side, 3 side chain; on linkers, the order of the positions; unused ones are H or OH. Bridge positions count the residues as written; N and C are the ends. Square brackets hold non-standard residues; d marks the D form. Peptide text beside a SMILES is read from it. I, II: the chains in the order shown. Actinocin(9to1) = Cc1c2oc3c(C)ccc(C(=O)[*:1])c3nc-2c(C(=O)[*:2])c(N)c1=O; NMeV = CN[C@H](C(=O)O)C(C)C; Sar = CNCC(=O)O
# B1: IFN-gamma: recombinant human IFN-gamma, cytokine purchased from Genzyme (protein, UniProt P01579 24-161, looked up)
# Interferon gamma: QDPYVKEAENLKKYFNAGHSDVADNGTLFLGILKNWKEESDRKIMQSQIVSFYFKLFKNFKDDQSIQKSVETIKEDMNVKFFNSNKKKRDDFEKLTNYSVTDLNVQRKAIHELIQVMAELSPAAKTGKRKRSQMLFRG
# Columns and labels:
# [1] = system: fibroblast-like synoviocytes (FLS); assay: ISEL assay of apoptosis (DNA fragmentation) in cultured fibroblast-like synoviocytes; format: cell-based, human; settings: for % apoptotic cells Without IFN-gamma (100 U/ml) / % apoptotic cells With IFN-gamma: FLS incubated with mediator for 16 h, n = 3, ISEL assay; for % apoptotic cells Without IFN-gamma (100 U/ml): 'Without IFN-gamma (100 U/ml)' [sic]; for % apoptotic cells With IFN-gamma: concentrations: IL-1 1 ng/ml, TNF-alpha 100 ng/ml, act D 0.5 ug/ml, anti-fas 80 ng/ml; for DNA fragmentation in FLS (ISEL assay), in words: cultured FLS in chamber slides, agent alone; for effect of combination on FLS apoptosis, in words: in combination with other apoptosis-inducing factors
# Procedure: Fragmented DNA was detected in cell nuclei using a modification of previously described methods (Wood et a., Neuron., 11:621-32, 1993 and Wijsman et al., J. Histochem. Cytochem. 41:7-12, 1993). Frozen section of synovial tissue (5-6 microns thick) were placed onto poly-L-lysine coated slides and air dried for at least 2 hours. The tissue sections were then fixed with EtOH/Acetic acid 3:1 for 10 min at room temperature and washed with buffer 1 (see below) for 5 min. The slides were then air dried 1 or at least 2 h. 10-15 ul of DNA polymerase mix were added to each section and incubated at room temperature for 1 h. The sections were washed with buffer 1 (see below) for 5 min at room temperature followed by a wash in buffer 2 for 5 min.
# Alkaline phosphatase conjugated anti-digoxigenin antibody was diluted to 1:500 in buffer 2 and 15-20 ul was applied to each specimen. The slides were incubated at 37° C. for 2 hrs in a humidified chamber and then washed with buffer 1 for 5 min. They were then equilibrated with buffer 3 for 5 min and the color reagent (NBT+BCIP) was added to the specimens. After about 30 min the slides were washed with distilled water, counterstained with eosin or methyl green and dehydrated with graded alcohol washes. The developing reagent gave a dark purple color for positive signals. Buffers: 10× DNA polymerase buffer=0.5M Tris.Cl pH7.5, 0.1M MgCl2, 1 mM DTT; 10× nucleotide mix=1 mM each of dATP, dCTP and dGTP, 0.4 mM dTTP; DNA polymerase mix=10× DNA pol buffer (2 ul), […] nucleotide mix (2 ul); 100 uM dig-11-dUTP (0.5 ul), Klenow polymerase (2 ul (2 U)), Water (13.5 ul); Buffer 1=100 mM Tris.Cl pH7.5, 150 mM NaCl; Buffer 2=0.5% Blocking agent in buffer 1, Buffer 3=100 […]. Quantification of ISEL assay. A semiquantitative scale was used to estimate the degree of ISEL staining in tissue sections that had been counterstained with methyl green to distinguish ISEL-positive and -negative cells. Four areas were reviewed by a blinded investigator: the synovial intimal lining, the sublining, blood vessels, and lymphoid aggregates. The extent of staining in the area was estimated and scored as using a previously established semiquantitative scale.
# Synovial cells were isolated by enzymatic dispersion of synovial tissues as previously described (Alvaro-Gracia, et al., supra). Briefly, the tissues were minced and incubated with 1 mg/ml collagenase in serum-free DMEM (Gibco, Grand Island, N.Y.) for 2 h at 37° C., filtered through a nylon mesh, extensively washed, and cultured in DMEM supplemented with 10% fetal calf serum (FCS) (Gibco, endotoxin content <0.006 ng/ml), penicillin, streptomycin, and L-glutamine in a humidified 5% Co2 atmosphere. After overnight culture, non-adherent cells were removed and adherent cells were cultivated in DMEM plus 10% FCS.
# At confluence, cells were trypsinized, split at a 1:3 ratio, and recultured in medium. Synoviocytes were used from passages 3 through 9 in these experiments, during which time they were a homogeneous population of fibroblast-like synoviocytes (FLS)(<1% CD11b, <1% phagocytic, and <1% Fc-gamma RII receptor positive).
# (§1) The presence of CD68-negative apoptotic cells in the synovial lining prompted an analysis of the regulation of FLS apoptosis in vitro. […] Osteoarthritis and rheumatoid arthritis-derived FLS were equally susceptible to induction of DNA strand breaks.
# Rheumatoid arthritis FLS = assay: 3HdTr nuclear fragmentation assay; format: cell-based, human; settings: FIG. 8; cytokines or antibodies 8 h, act D 4 h
# Procedure: Rheumatoid arthritis FLS were seeded at 10^4 cells/well in a 96-well microtiter plate. The cells were cultured at 37° C. and 5% CO2 for 2 days. On the third day, 10 uCi/ml/well of 3HdTR was added to each well and incubated overnight. The cells were then treated with different concentrations of cytokines or antibodies for 8 h or actinomycin D (act D) for 4 h and then lysed by 2 rounds of freeze-thaw cycles. Lysed cells and media were aspirated onto fiber glass filters using a cell harvester. The filters were washed to remove unincorporated nucleotides and counted in a liquid scintillation counter. All points were done in triplicates. Percent specific fragmentation was calculated as follows: (S-E)×100/S, where E=retained cpms on the filter in the presence of cytokine and S=retained cpms on the filter in the medium control (Matzinger, P., J. Immunological Methods 145:185-92, 1991).
# as §1
# Fas on FLS = assay: Surface Fas expression on FLS by flow cytometry (FACS); format: cell-based, human; settings: IL-1beta 1 ng/ml or TNF-alpha 100 ng/ml for 16 to 24 hours; pooled RA and OA FLS
# Procedure: FLS (1-2×105) were cultured in 6-well plastic dishes (Costar, Cambridge, Mass.) in DMEM-10% FCS. Cells were harvested with 5 mM EDTA at 4° C. and stained with anti-fas or control antibody (Kamiya Biomedical Co., Thousand Oaks, Calif.) as previously described (Alvaro-Gracia, et al., supra). Phycoerythrin conjugated Fab2 anti-mouse IgG (Tago Inc. Burlingame, Calif.) was used as a secondary antibody. An isotype matched MAb was used as negative control. Induction of Fas expression by cytokines was calculated from the mean fluorescence channels (MFC) as follows: relative MFC=(MF(Ccytokine-MFClgG)/(MFCmedium-MFClgG). A cell was defined a positive if its MFC was greater than 98% of cells stained with the control antibody. Statistical analysis. Data were analyzed using the paired Student t test and are presented as mean+SEM.
# Since anti-fas antibody induced DNA fragmentation in FLS, fas expression was determined on these cells using flow cytometry. Many FLS constitutively expressed Fas protein on the cell surface (see FIG. 9 for a representative experiment (n=7; 4 rheumatoid arthritis and 3 osteoarthritis)). There were no significant differences between osteoarthritis and rheumatoid arthritis FLS with regard to the level of surface Fas expression on resting synoviocytes. […]
# mouse air pouch tissue = assay: Mouse air pouch model of inflammation with TUNEL staining; format: in vivo; settings: 3 ml of 1% carrageenan into pouch, two days after injection
# Procedure: In this standard model, mice were lightly anesthetized with halothane and 3 ml of sterile filtered air was injected subcutaneously into the back, forming a pocket. This procedure was repeated twice over the next 5 days to form a mature pouch. Subsequently, 3 ml of 1% carrageenan was injected into the pouches. Carrageenan is a highly inflammatory natural substance that, when injected into body cavities, induces leukocyte recruitment, cytokine gene expression, and release of a variety of small molecule mediators. Two days after carrageenan injection, the mice were sacrificed and the pouches were removed. The excised pouches were fixed in formaldehyde and histologic sections were prepared. The sections were subsequently stained using the TUNEL technique (Wood, et al., Neuron, 11:621, 1993) to identify cells with fragmented DNA that were undergoing apoptosis.
# p53 in RA FLS = settings: 8-9 hr after stimulating with H2O2 for 100 min; n=3; medium alone 10.7±2.4%
# Procedure: (§2) The intracellular location of p53 protein is an important determinant of its functional capabilities. It is known that p53 can reside in the cytoplasm (generally bound to hsc70) but is transported to the nucleus after DNA damage or proliferative signals. […] Immunohistochemistry was then performed on cultured RA FLS to determine the subcellular localization of p53.
# [2] = system: p53 in dermal fibroblasts; settings: after exposure to H2O2; before 5±11%
# Procedure: as §2
Molecule,% apoptotic cells Without IFN-gamma (100 U/ml) [1],% apoptotic cells With IFN-gamma [1],"DNA fragmentation in FLS (ISEL assay), in words [1]","effect of combination on FLS apoptosis, in words [1]","DNA fragmentation in cultured FLS (3HdTr nuclear fragmentation), in words (Rheumatoid arthritis FLS)","surface Fas expression on FLS, in words (Fas on FLS)","TUNEL-positive cells in air pouch tissue, in words (mouse air pouch tissue)","inflammatory infiltration of the air pouch, in words (mouse air pouch tissue)",% of FLS with prominent nuclear p53 staining (p53 in RA FLS),% of dermal fibroblasts with nuclear p53 staining [2]
TNF-alpha,3 ± 2 %,35 ± 1%,caused significant DNA fragmentation,additive with actinomycin D,caused DNA fragmentation,significantly increased surface Fas expression,,,,
carrageenan,,,,,,,large foci of TUNEL-positive cells were present,an inflammatory exudate was present,,
"Cc1c2oc3c(C)ccc(C(=O)N[C@@H]4C(=O)N[C@H](C(C)C)C(=O)N5CCC[C@H]5C(=O)N(C)CC(=O)N(C)[C@@H](C(C)C)C(=O)O[C@@H]4C)c3nc-2c(C(=O)N[C@@H]2C(=O)N[C@H](C(C)C)C(=O)N3CCC[C@H]3C(=O)N(C)CC(=O)N(C)[C@@H](C(C)C)C(=O)O[C@@H]2C)c(N)c1=O [actinomycin D, reference compound] (I: T[dV]P[Sar][NMeV] / II: T[dV]P[Sar][NMeV]; ester I:1-I:C, II:1-II:C; linker I:N-II:N via Actinocin(9to1))",6 ± 3 %,37 ± 5%,caused significant DNA fragmentation,,caused DNA fragmentation,,,,,
OO [hydrogen peroxide],,,,,,,,,70.7±12.8%,75±17%
"IL-1: Recombinant hIL-1 beta, cytokine purchased from Genzyme",0 ± 2 %,50 ± 2%,caused significant DNA fragmentation,,caused DNA fragmentation,"slight increase, the difference did not reach statistical significance",,,,
B1,6 ± 2%,,minimal effect,significantly reduced FLS apoptosis,,,,,,
